Test systems include Escherichia coli BL21; Bacillus subtilis DELTA; Candida parapsilosis; Escherichia coli UB1005; Staphylococcus aureus; Streptococcus agalactiae; Escherichia coli 078; Escherichia coli K88; Escherichia coli K99.
Assay in all cases: ≥ marks a high value that may be exact or a test limit, other limits are often not marked, values filed in µg/mL are converted to µM
The test system of experiment [1] is Pseudomonas aeruginosa PAO1.
In experiment [2] the test system is Streptococcus pyogenes M1T1 5448.
The test system of experiment [3] is Escherichia coli DH5alpha.
Experiment [4] deals with Zymomonas mobilis ATCC 10988.
In experiment [5] the test system is Escherichia coli NEB5alpha.
In experiment [6] the test system is Escherichia coli ATCC 25922.
Experiment [7] relates to Pseudomonas aeruginosa ATCC 27853.
For experiment [8], the system named is Staphylococcus aureus ATCC 12600.
Experiment [9] deals with Streptococcus mutans ATCC 25175.
The test system of experiment [10] is Enterococcus faecalis ATCC 29212.
The test system of experiment [11] is Salmonella enterica subsp. enterica serovar Choleraesuis CVCC 503.
The test system of experiment [12] is Salmonella enterica subsp. enterica serovar Pullorum C79-13.
Experiment [13] has as its system Salmonella enterica subsp. enterica serovar Typhimurium ATCC 14028.
Experiment [14] relates to Salmonella enterica subsp. enterica serovar Typhimurium C77-31.
Experiment [15] relates to Staphylococcus aureus ATCC 29213.
Experiment [16] deals with Staphylococcus aureus ATCC 43300.
Experiment [17] relates to Staphylococcus epidermidis ATCC 12228.
Experiment [18] deals with Bacillus subtilis ATCC 6051.
Experiment [19] has as its system Bacillus subtilis CMCC 63501.
In experiment [20] the test system is Staphylococcus aureus ATCC 25923.

Usually MIC stands for the least concentration at which growth counts as inhibited.

Values after ≈ are worked out from the molar mass of the structure shown.

`CC[C@H](C)[C@H](NC(=O)[C@H](Cc1ccccc1)NC(=O)[C@H](C)NC(=O)[C@H](CCCCN)NC(=O)[C@H](CCCCN)NC(=O)[C@H](Cc1c[nH]c2ccccc12)NC(=O)[C@H](CCCN=C(N)N)NC(=O)[C@H](CCCCN)NC(=O)[C@H](CCCN=C(N)N)NC(=O)[C@H](CC(C)C)NC(=O)[C@H](CCC(=O)O)NC(=O)[C@H](CCC(=O)O)NC(=O)[C@H](CC(C)C)NC(=O)[C@H](CC(C)C)NC(=O)[C@H](Cc1ccc(O)cc1)NC(=O)[C@H](CCCCN)NC(=O)[C@@H](NC(=O)[C@H](CC(C)C)NC(=O)[C@H](C)NC(=O)[C@H](CCC(N)=O)NC(=O)[C@H](CCCN=C(N)N)NC(=O)CNC(=O)[C@H](C)N)[C@@H](C)O)C(=O)N[C@@H](C)C(=O)N[C@@H](Cc1c[nH]c2ccccc12)C(=O)O` [AGRQALTKYLLEELRKRWKKAFIAW]: the results for the MIC (in the experiment with Escherichia coli BL21; in experiment [1]; in [2]) were 1 µM (≈ 3.08 µg/mL), 64 µM (≈ 197 µg/mL) and 2 µM (≈ 6.15 µg/mL), respectively.

Consider `CC[C@H](C)[C@H](NC(=O)[C@H](CCCCN)NC(=O)[C@H](CC(C)C)NC(=O)[C@H](CC(C)C)NC(=O)CN)C(=O)N[C@H](C(=O)N[C@@H](CCCCN)C(=O)N[C@@H](CCCN=C(N)N)C(=O)N[C@@H](CC(C)C)C(=O)N[C@@H](CC(C)C)C(N)=O)[C@@H](C)CC` [GLLKIIKRLL], for which the MIC against Bacillus subtilis DELTA was 8.57 µM (≈ 9.99 µg/mL); against Candida parapsilosis, 12.9 µM (≈ 15 µg/mL); in [3] it was ≥ 171 µM; in experiment [1], 2.57 µM (≈ 3 µg/mL); in experiment [4], 4.29 µM (≈ 5 µg/mL).

With `CC[C@H](C)[C@H](NC(=O)[C@H](C)NC(=O)[C@H](C)NC(=O)[C@H](CCCN=C(N)N)NC(=O)[C@H](CC(=O)O)NC(=O)[C@H](CC(N)=O)NC(=O)[C@@H](NC(=O)[C@@H](N)CCCCN)[C@@H](C)O)C(=O)NCC(=O)N[C@@H](CCCCN)C(=O)N[C@@H](CC(C)C)C(=O)N[C@H](C(=O)NCC(=O)N[C@@H](C)C(=O)N[C@H](C(=O)N[C@@H](CO)C(=O)N[C@@H](CO)C(=O)N[C@@H](CC(C)C)C(=O)O)[C@@H](C)O)C(C)C` [KTNDRAAIGKLVGATSSL], in experiment [5], the MIC is ≥ 1000 µM.

For the compound `CC[C@H](C)[C@H](NC(=O)[C@H](C)NC(=O)CNC(=O)[C@H](Cc1ccccc1)NC(=O)[C@H](CC(C)C)NC(=O)CN)C(=O)N[C@@H](C)C(=O)NCC(=O)N[C@@H](Cc1ccccc1)C(=O)N[C@H](C(=O)N[C@@H](CCCCN)C(=O)NCC(=O)NCC(=O)N[C@@H](Cc1c[nH]c2ccccc12)C(=O)N1CCC[C@H]1C(=O)NCC(=O)N[C@@H](CC(C)C)C(=O)N[C@H](C(=O)N[C@@H](CCCCN)C(=O)NCC(N)=O)C(C)C)[C@@H](C)CC` [GLFGAIAGFIKGGWPGLVKG], the minimal inhibitory concentration (MIC) in experiment [6] was 16 µM (≈ 31.1 µg/mL); in [7] it was > 64.3 µM; in [8], 16 µM (≈ 31.1 µg/mL); in experiment [9], 11.3 µM (≈ 22 µg/mL).

Regarding `CC[C@H](C)[C@H](N)C(=O)N[C@H](C(=O)N[C@@H](CS)C(=O)N[C@@H](CCCN=C(N)N)C(=O)N[C@@H](CCCCN)C(=O)N1CCC[C@H]1C(=O)N[C@H](C(=O)N[C@H](C(=O)N[C@@H](CS)C(=O)N[C@@H](CCCN=C(N)N)C(=O)N[C@@H](CCCCN)C(=O)N1CCC[C@H]1C(=O)N[C@H](C(=O)N[C@H](C(N)=O)[C@@H](C)CC)[C@@H](C)CC)[C@@H](C)CC)[C@@H](C)CC)[C@@H](C)CC` [IICRKPIICRKPII], the MIC in experiment [10] was > 64 µM; in [6], 16 µM (≈ 26.6 µg/mL); in the experiment on Escherichia coli UB1005, 16 µM (≈ 26.6 µg/mL); in experiment [11], ≥ 64 µM; in [12], ≥ 64 µM; in experiment [13] it was 32 µM (≈ 53.3 µg/mL). Moreover, the minimal inhibitory concentration (MIC) in [14] is ≥ 32 µM; in experiment [15], > 64 µM; in [16], > 64 µM; in the experiment on Staphylococcus aureus it was > 64 µM; in experiment [17], > 64 µM; in the experiment with Streptococcus agalactiae it was ≥ 64 µM.

`CC[C@H](C)[C@H](NC(=O)[C@H](C)NC(=O)CNC(=O)[C@H](CCCCN)NC(=O)[C@H](CCC(=O)O)NC(=O)[C@H](CCC(=O)O)NC(=O)[C@H](CC(=O)O)NC(=O)[C@H](CCC(=O)O)NC(=O)[C@H](CC(N)=O)NC(=O)[C@H](CCCN=C(N)N)NC(=O)CNC(=O)[C@H](CCC(N)=O)NC(=O)[C@H](CC(C)C)NC(=O)[C@@H](N)CCCCN)C(=O)N[C@H](C(=O)N[C@@H](CCCCN)C(=O)N[C@H](C(=O)N[C@@H](CCCCN)C(=O)O)C(C)C)C(C)C` [KLQGRNEDEEKGAIVKVK]: the MIC in [18] and in experiment [5] was ≥ 1000 µM each time.

Regarding `CC[C@H](C)[C@H](NC(=O)[C@H](CCCCN)NC(=O)[C@H](CCCCN)NC(=O)[C@H](CCCCN)NC(=O)[C@H](CC(C)C)NC(=O)[C@H](CCCN=C(N)N)NC(=O)[C@H](CCC(N)=O)NC(=O)[C@H](Cc1ccccc1)NC(=O)[C@@H](NC(=O)[C@@H](NC(=O)[C@H](CCC(=O)O)NC(=O)[C@H](CCCCN)NC(=O)CNC(=O)[C@H](C)N)[C@@H](C)O)[C@@H](C)CC)C(=O)N[C@@H](CCC(N)=O)C(=O)N[C@@H](CCC(=O)O)C(=O)N[C@@H](CCCCN)C(=O)NCC(=O)N[C@@H](CCCCN)C(=O)N[C@@H](CCCN=C(N)N)C(=O)N[C@@H](C)C(=O)N[C@H](C(=O)N[C@H](C(=O)N[C@@H](Cc1c[nH]c2ccccc12)C(=O)N[C@@H](Cc1c[nH]c2ccccc12)C(=O)O)[C@@H](C)CC)[C@@H](C)O` [AGKETIFQRLKKKIQEKGKRATIWW], the MIC in the experiment with Escherichia coli BL21 was found to be 4 µM (≈ 12.2 µg/mL); in experiment [1], 16 µM (≈ 48.7 µg/mL); in experiment [2], 0.25 µM (≈ 0.761 µg/mL).

For `CC[C@H](C)[C@H](NC(=O)[C@H](Cc1c[nH]c2ccccc12)NC(=O)[C@H](CCCCN)NC(=O)[C@H](CC(C)C)NC(=O)[C@@H](NC(=O)[C@H](Cc1c[nH]c2ccccc12)NC(=O)CNC(=O)[C@@H](NC(=O)[C@H](CCCCN)NC(=O)[C@H](Cc1c[nH]c2ccccc12)NC(=O)[C@H](CC(C)C)NC(=O)[C@@H](N)CCCN=C(N)N)[C@@H](C)CC)C(C)C)C(N)=O` [RLWKIGWVLKWI], the MIC was 2 µM (≈ 3.19 µg/mL) in [19]; 4 µM (≈ 6.39 µg/mL) in experiment [10]; 4 µM (≈ 6.39 µg/mL) in the experiment on Escherichia coli 078; 16 µM (≈ 25.6 µg/mL) in experiment [6]; 2 µM (≈ 3.19 µg/mL) against Escherichia coli K88; 4 µM (≈ 6.39 µg/mL) in the experiment on Escherichia coli K99. For the same compound, the MIC in the experiment on Escherichia coli UB1005 came to 16 µM (≈ 25.6 µg/mL); in [12] it was 2 µM (≈ 3.19 µg/mL); in [13], 8 µM (≈ 12.8 µg/mL); in experiment [14] it was 16 µM (≈ 25.6 µg/mL); in experiment [20] it was 16 µM (≈ 25.6 µg/mL); in experiment [15], 8 µM (≈ 12.8 µg/mL). The compound further came in with an MIC in experiment [17] of 16 µM (≈ 25.6 µg/mL).

Turning to `CC(C)[C@H](N)C(=O)N[C@@H](CS)C(=O)N[C@@H](CCCN=C(N)N)C(=O)N[C@@H](CCCCN)C(=O)N1CCC[C@H]1C(=O)N[C@H](C(=O)N[C@H](C(=O)N[C@@H](CS)C(=O)N[C@@H](CCCN=C(N)N)C(=O)N[C@@H](CCCCN)C(=O)N1CCC[C@H]1C(=O)N[C@H](C(N)=O)C(C)C)C(C)C)C(C)C` [VCRKPVVCRKPV], the MIC in experiment [10] was > 64 µM; in [6], > 64 µM; against Escherichia coli UB1005 it was ≥ 64 µM; in [11], ≥ 64 µM; in experiment [12], ≥ 64 µM; in experiment [13], > 64 µM. Further, the MIC in experiment [14] was ≥ 64 µM; in experiment [15], > 64 µM; in experiment [16], > 64 µM; against Staphylococcus aureus, > 64 µM; in [17] it was > 64 µM; in the experiment with Streptococcus agalactiae, ≥ 64 µM.

The values are drawn from DBAASP.
